# Experimental data published in patent publication US7575764B2, “Compositions comprising hypsizygus ulmarius extract” (ELC Management LLC, priority 2005, dated 2009).
# Key:
# [1] = test system: IL-1β mediated adhesion of neutrophils; test: Inhibition of IL-1β mediated adhesion of neutrophils (PMN) to human dermal microvascular endothelial cells; format: cell-based
# Method: Three samples identical to those in example 4 were tested for their ability to inhibit endothelial adhesion of neutrophils by interfering with the effects of IL-1β. These samples were tested at final concentrations of 0.1% and 1% (w/v). Neutrophil adhesion was inhibited dose dependently with all samples tested. Adhesion of PMN to human dermal microvascular cells is a required step in the recruitment of leukocytes into the site of infection or irritation and was modeled for this assay in the following manner. […] The PMN rich fraction was removed and RBC were lysed with hypotonic saline. The PMN were washed twice with Hank's balanced salt solution (HBSS) and then resuspended in 5.0 ml HBSS with ions supplemented with 0.4% bovine serum albumin (Sigma). The concentration of cells was adjusted to 10×106 PMN/ml. Collected PMNs were greater than 95% pure and 98% viable as assessed by the trypan blue exclusion assay. […] In preliminary experiments the optimum concentrations of stimulatory agents (IL-1β, 10 U/ml and TPA, 5 ng/ml) were determined. […] After 30-45 min, the wells were read in an ELISA reader (Bio-Tek Instruments Inc, Winooslei, Vt., USA) at 570 nm. The level of adherence was given as the mean optical density (OD) reading at an OD570 for wells containing endothelial cells plus PMN minus the mean OD570 of wells containing endothelial cells alone.
# [2] = test system: LTB4-mediated neutrophil chemotaxis; test: Inhibition of neutrophil (PMN) chemotaxis toward LTB4, Boyden chamber; format: cell-based, human
# Method: Three test samples, identical to powder samples 1, 2 and 3 in Example 1, were assayed for their ability to inhibit neutrophil chemotaxis toward Leukotriene B4. The assay is designed to assess the ability of a material to inhibit the migration of polymorphonuclear leukocytes (PMN) toward a known chemotactic agent, LTB4. […] The PMN rich fraction was removed and red blood cells (RBC) were lysed with hypotonic saline. The PMN were washed twice with Hank's Balanced Salt Solution (HBSS) and then resuspended in 5.0 ml HBSS with ions supplemented with 0.4% bovine serum albumin (Sigma). The concentration of cells was adjusted to 10×106 PMN/ml. Collected PMNs were greater than 95% pure and 98% viable as assessed by the trypan blue exclusion assay. The assay was performed using the Boyden chamber apparatus with blind well chambers fitted with 5 μm pore size filters (Millipore). The apparatus consists of two vertical chambers separated by a filter that contains pores of a size chosen such that the holes are large enough for the cells to actively crawl through them but not so large that the cells can physically fall through into the lower chamber. […] The chemoattractant used in the present experiment was 0.125 nM LTB4. Following incubation at 37° C. for 90 min., under a humidified atmosphere with 5% CO2, the filters were fixed with propanol and stained with haematoxylin and eosin. The PMN chemotactic response was determined by the distance to the leading front and the number of cells that migrated to the front. The distance to the leading front was determined at 400× magnification by the distance the majority of the cells migrated through the filter. The results were expressed as the average number of cells per high powered field at the leading (migratory) front (PMN/HPF). In this assay, 0.5% caffeine was used as a positive control. A negative control, with no anti-chemotactic agent, was also used. The results, shown in Table 4, are the percent reduction in chemotactic activity compared to the negative control.
structure (smiles),measurement,setting,value
Cn1c(=O)c2c(ncn2C)n(C)c1=O [caffeine],Percent reduction in adhesion activity compared to negative control,"[1]; Example 5, 1.0% (w/v), IL-1β 10 U/ml",64%
same,Percent reduction in adhesion activity compared to negative control,"[1]; Example 8, positive control at 1.0% concentration",47%
same,Percent reduction in chemotactic activity compared to the negative control,"[2]; Example 2, 0.5% (w/v), 0.125 nM LTB4",96%
same,Percent reduction in chemotactic activity compared to negative control,"[2]; Example 4, 0.1% (w/v), 0.125 nM LTB4",93%
same,Percent reduction in chemotactic activity compared to negative control,"[2]; Example 6, concentration 0.5%",94%
same,Percent reduction in chemotactic activity compared to negative control,"[2]; Example 7, positive control at 0.5% concentration",97%
